Molecular target: OROV Endo-Nter (N-terminal endonuclease domain of the OROV RNA polymerase, L protein) (Oropouche virus, UniProt A0A0B5CUJ1)
Assay: FRET cleavage assay of dual-labelled DNA
Assay type: biochemical

## COc1cc(O)c2c(c1)oc(=O)c1c3cc(O)c(O)cc3oc21 [WDL, 7‑methoxy 5,11,12-trihydroxy-coumestan]
  IC50: 0.31 ± 0.008 µM

From paper PMC11090880 (Current Research in Microbial Sciences, 2024)
